Measured values as given in patent US4029692A, “Steroid carboxylic acids and derivatives” (priority 1975, dated 1977).

Tests used:
thymus weight = assay: Thymolysis test (thymus weight reduction); format: in vivo, rats (female); conditions: Rattus norvegicus, 120 h; 50% reduction in the thymus weight; rats of the Felt pellet test; oral on 4 successive days
Procedure: (§1) 2 felt pellets were implanted under the skin (scapula region) in female rats (90-110 g) under ether narcosis. The D-homosteroids were administered orally on 4 successive days commencing on the day of the implantation. On the fifth day the rats were killed, the granulomas which formed were removed, dried and weighed. The ED40, namely that dosage which gave a 40% reduction of the granulation weight, was determined. The thymus and kidney fresh weight as well as the weight-change were also determined.
Rats employed in the Felt pellet test were used for this test. The ED50, namely that dosage which gave a 50% reduction in the thymus weight, was determined.

[1] = system: hind paw oedema (Mycobacterium butyricum); assay: Adjuvant-paw oedema test; format: in vivo, Lewis rats (female); conditions: in Rattus norvegicus, 50% oedema inhibition, given immediately before and 24 hours after, paw diameter at 48 hours
Procedure: This test was carried out on female Lewis rats weighing 130-150 g. The oedema was caused by the subplantar injection of Mycobacterium butyricum in the right hind paw (0.5 mg of M. butyricum/0.1 ml of liquid paraffin). The D-homosteroids (suspended in 0.5% tragacanth/0.9% sodium chloride) were administered immediately before and 24 hours after the establishment of the oedema. The paw diameter was measured before and 48 hours after the establishment of the oedema. The ED50, namely the dosage which brings about a 50% oedema inhibition, was determined by means of a graph.

[2] = system: granulomas (felt pellets implanted under the skin); assay: Felt pellet test (granulation weight reduction); format: in vivo, rats (female); conditions: Rattus norvegicus, 120 h; 40% reduction of the granulation weight; oral on 4 successive days
Procedure: as §1

[3] = system: experimentally hyperemiated skin; assay: Vasoconstriction test; format: in vivo; conditions: concentration 0.1%, visual estimate, hyperemiated non-treated skin = 0, non-hyperemiated skin = 100; for Vasoconstriction, colour value, 4 hrs.: after 4 hours; for Vasoconstriction, colour value, 8 hrs.: after 8 hours
Procedure: J. Derm. 69, 11 (1957)]. In this test, the degree of the vasoconstriction in relation to the time was estimated visually (after 4 and 8 hours). The colour value of the hyperemiated non-treated skin was rated as 0 and the colour value of the non-hyperemiated skin was rated as 100. The D-homosteroids were used in concentration of 0.1%.

Compound	ED50 (thymus weight)	ED50 [1]	ED40 [2]	Vasoconstriction, colour value, 4 hrs. [3]	Vasoconstriction, colour value, 8 hrs. [3]
COC(=O)[C@@]1(OC(C)=O)CCC[C@H]2[C@@H]3CCC4=CC(=O)C=C[C@]4(C)[C@@]3(F)[C@@H](O)C[C@@]21C [17aα-acetoxy-9α-fluoro-11β-hydroxy-3-oxo-D-homoandrosta-1,4-diene-17aβ-carboxylic acid methyl ester]	0.9 mg/kg	1.3 mg/kg	9 mg/kg	63	77
COC(=O)[C@@]1(OC(C)=O)CCC[C@H]2[C@@H]3CCC4=CC(=O)CC[C@]4(C)[C@H]3[C@@H](O)C[C@@]21C [17aα-acetoxy-11β-hydroxy-3-oxo-D-homoandrost-4-ene-17aβ-carboxylic acid methyl ester]				72	70
COC(=O)[C@@]1(OC(C)=O)CCC[C@H]2[C@@H]3CCC4=CC(=O)C=C[C@]4(C)[C@H]3[C@@H](O)C[C@@]21C [17aα-acetoxy-11β-hydroxy-3-oxo-D-homoandrosta-1,4-diene-17aβ-carboxylic acid methyl ester]	0.65 mg/kg	3.5 mg/kg	3 mg/kg	70	77
